Experimental data reported in article PMC12578387, “TET3 is a common epigenetic immunomodulator of pathogenic macrophages” (The Journal of Clinical Investigation, 2025).

Key:
[1] = biological target: TET3 (Tet methylcytosine dioxygenase 3) (Homo sapiens, UniProt O43151); experiment: AlphaScreen of Bc-dependent TET3-VHL ternary complex formation; supported by co-IP and degradation of TET3 in human MDMs; type: binding
[2] = biological target: TET1 (Homo sapiens, UniProt Q8NFU7); experiment: AlphaScreen of Bc-dependent TET1-VHL ternary complex formation (weaker than TET3; no TET1 degradation in cells); type: binding
Sequence of TET1 (Q8NFU7 1418-2136 limits assumed): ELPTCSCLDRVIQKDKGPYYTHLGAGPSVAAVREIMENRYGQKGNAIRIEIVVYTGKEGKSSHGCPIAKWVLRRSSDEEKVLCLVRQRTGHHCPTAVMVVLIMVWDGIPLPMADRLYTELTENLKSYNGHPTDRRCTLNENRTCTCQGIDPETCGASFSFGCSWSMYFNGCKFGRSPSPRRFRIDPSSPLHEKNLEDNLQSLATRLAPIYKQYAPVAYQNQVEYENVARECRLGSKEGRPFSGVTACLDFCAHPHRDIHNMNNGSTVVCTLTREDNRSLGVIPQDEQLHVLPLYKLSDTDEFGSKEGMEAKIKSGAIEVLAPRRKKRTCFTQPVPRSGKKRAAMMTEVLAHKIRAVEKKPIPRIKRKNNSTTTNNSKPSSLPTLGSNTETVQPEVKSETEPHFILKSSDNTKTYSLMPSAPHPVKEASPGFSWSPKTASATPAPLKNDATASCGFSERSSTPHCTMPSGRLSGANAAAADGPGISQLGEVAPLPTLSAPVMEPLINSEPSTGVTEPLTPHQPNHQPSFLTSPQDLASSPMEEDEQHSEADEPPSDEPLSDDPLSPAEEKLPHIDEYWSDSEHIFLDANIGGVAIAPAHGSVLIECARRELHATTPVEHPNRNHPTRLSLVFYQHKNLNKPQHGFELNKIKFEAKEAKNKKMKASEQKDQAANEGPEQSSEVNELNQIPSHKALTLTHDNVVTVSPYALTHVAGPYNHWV
Sequence of TET1 (P40337 whole entry partner): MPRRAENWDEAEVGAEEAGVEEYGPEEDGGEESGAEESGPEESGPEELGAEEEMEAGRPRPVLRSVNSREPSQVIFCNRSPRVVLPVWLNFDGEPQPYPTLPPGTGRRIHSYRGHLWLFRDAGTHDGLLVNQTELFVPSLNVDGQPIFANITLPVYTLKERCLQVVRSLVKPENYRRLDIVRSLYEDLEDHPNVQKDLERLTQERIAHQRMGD

Sequence of TET3 (Tet methylcytosine dioxygenase 3) (O43151 850-1795 limits assumed): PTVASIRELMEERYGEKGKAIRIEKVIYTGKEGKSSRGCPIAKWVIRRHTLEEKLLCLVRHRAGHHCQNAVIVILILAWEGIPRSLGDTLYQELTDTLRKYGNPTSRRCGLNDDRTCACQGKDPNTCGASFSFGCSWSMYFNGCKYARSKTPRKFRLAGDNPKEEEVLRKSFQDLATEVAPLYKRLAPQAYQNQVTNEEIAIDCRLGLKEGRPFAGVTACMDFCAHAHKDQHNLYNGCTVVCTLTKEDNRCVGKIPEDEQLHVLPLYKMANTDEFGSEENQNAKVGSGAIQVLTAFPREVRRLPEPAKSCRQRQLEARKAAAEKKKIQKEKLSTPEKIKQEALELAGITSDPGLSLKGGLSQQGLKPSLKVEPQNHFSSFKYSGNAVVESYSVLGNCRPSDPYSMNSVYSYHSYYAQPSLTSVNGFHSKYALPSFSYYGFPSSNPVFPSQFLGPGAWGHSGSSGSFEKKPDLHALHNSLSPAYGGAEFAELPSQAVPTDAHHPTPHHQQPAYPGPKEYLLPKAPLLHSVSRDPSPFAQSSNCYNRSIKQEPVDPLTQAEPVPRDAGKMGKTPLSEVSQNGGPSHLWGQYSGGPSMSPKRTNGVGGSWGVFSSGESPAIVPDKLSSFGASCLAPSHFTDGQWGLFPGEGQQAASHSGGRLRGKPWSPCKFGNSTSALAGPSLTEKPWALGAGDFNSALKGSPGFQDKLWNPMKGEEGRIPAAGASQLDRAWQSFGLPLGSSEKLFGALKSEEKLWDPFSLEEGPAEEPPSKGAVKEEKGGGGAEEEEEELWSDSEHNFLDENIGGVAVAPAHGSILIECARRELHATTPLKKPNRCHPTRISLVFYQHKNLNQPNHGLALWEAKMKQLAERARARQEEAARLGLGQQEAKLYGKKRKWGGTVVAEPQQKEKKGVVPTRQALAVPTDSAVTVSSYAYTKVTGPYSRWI
Sequence of TET3 (Tet methylcytosine dioxygenase 3) (P40337 whole entry partner): as the sequence (P40337 whole entry partner) above

In the case of `Nc1nc(=O)n(-c2cccc(-c3ccccc3)c2)cc1Cl` [Bc, Bobcat339], the EC50 [1] is reported as 0.05 mM and the EC50 [2] is reported as 8.51 mM.
